Laboratory results reported in PMC4467398, “Preclinical antitumor activity of ST7612AA1: a new oral thiol-based histone deacetylase (HDAC) inhibitor” (Oncotarget, 2014).

Test system: DOHH2 and TMD8 DLBCL cells
Experiment: Gene expression profiling (HumanHT-12 v4 BeadChip, limma), ST7612AA1 300 nM 8 hrs vs DMSO
Format: cell-based, human
Details: 300 nM 8 hrs vs DMSO

CC(=O)SCCCCC[C@H](NC(=O)[C@H]1CCC(=O)N1)C(=O)Nc1ccccc1 [ST7612AA1]
log ratio POGK (ILMN_1756669): -8.84E-01 | log ratio POLR1C (ILMN_1746686): -8.40E-01 | log ratio PPP1R13B (ILMN_1748831): 6.43E-01 | log ratio PPP2R1A (ILMN_1810467): -5.99E-01 | log ratio PPRC1 (ILMN_1796210): -1.03E+00 | log ratio PRDM10 (ILMN_2352293): -8.83E-01 | log ratio PRDX2 (probe ILMN_1767766): 8.35E-01 | log ratio PRDX2 (probe ILMN_2382829): 7.41E-01 | log ratio PRKAR1B (ILMN_1674390): -8.76E-01 | log ratio PRKCB1 (ILMN_1806908): 6.12E-01 | log ratio PRMT3 (ILMN_1662964): -1.23E+00 | log ratio PSMB5 (ILMN_1744649): -9.34E-01 | log ratio PSMB10 (ILMN_1683026): -8.38E-01 | log ratio PSMG4 (ILMN_3224204): -5.99E-01 | log ratio PTGER4 (probe ILMN_1795930): 9.03E-01 | log ratio PTMS (ILMN_1721046): 6.73E-01 | log ratio PTPN7 (ILMN_1715214): -6.16E-01 | log ratio PTS (ILMN_2162328): -8.08E-01 | log ratio PTTG1 (probe ILMN_1753196): 6.92E-01 | log ratio PTTG1IP (ILMN_1802251): 6.45E-01 | log ratio PTTG1IP (ILMN_2128750): 6.16E-01 | log ratio PTTG3P (ILMN_2049021): 6.08E-01 | log ratio QTRTD1 (ILMN_2155516): -7.99E-01 | log ratio RAB8B (probe ILMN_2173004): 8.71E-01 | log ratio RAB11FIP2 (ILMN_2072541): -5.92E-01 | log ratio RAB11FIP5 (ILMN_1740604): 6.69E-01 | log ratio RAB24 (probe ILMN_2379718): 7.77E-01 | log ratio RABEPK (ILMN_1741957): -9.81E-01 | log ratio RABGAP1 (probe ILMN_2061950): 6.86E-01 | log ratio RAD9A (ILMN_1684183): 6.33E-01 | log ratio RAN (ILMN_1757384): -8.66E-01 | log ratio RAPGEF2 (probe ILMN_3247261): 8.54E-01 | log ratio RASAL1 (probe ILMN_1793517): 7.10E-01 | log ratio RASD2 (probe ILMN_2170209): 7.75E-01 | log ratio RASGRP3 (ILMN_1727045): -9.48E-01 | log ratio RASL10A (ILMN_1747673): 6.25E-01 | log ratio RASSF2 (ILMN_1709683): -8.05E-01 | log ratio RBM23 (ILMN_1780756): -8.92E-01 | log ratio RBM23 (ILMN_2363106): -9.17E-01 | log ratio RBM38 (ILMN_2404049): 6.27E-01 | log ratio RCAN1 (ILMN_2367239): 6.08E-01 | log ratio RCC2 (ILMN_1720124): -8.76E-01 | log ratio REEP2 (probe ILMN_1666057): 6.85E-01 | log ratio RFC1 (probe ILMN_2217935): 7.23E-01 | log ratio RGS19 (ILMN_1677085): -9.37E-01 | log ratio RHBDD2 (probe ILMN_1809437): 7.80E-01 | log ratio RHBDD2 (probe ILMN_2406410): 8.04E-01 | log ratio RHOBTB3 (probe ILMN_1744949): 8.25E-01 | log ratio RHOC (probe ILMN_1673305): 9.02E-01 | log ratio RIOK3 (ILMN_2404135): 5.99E-01 | log ratio RNASE4 (probe ILMN_1776602): 7.33E-01 | log ratio RND2 (probe ILMN_1736533): 7.06E-01 | log ratio RNF24 (probe ILMN_1717809): 7.24E-01 | log ratio RNF135 (ILMN_1700660): -6.19E-01 | log ratio RNFT2 (ILMN_3299905): 6.00E-01 | log ratio RPIA (ILMN_1714809): -9.23E-01 | log ratio RPL29 (ILMN_1737517): -1.05E+00 | log ratio RPL29 (ILMN_1771051): -1.03E+00 | log ratio RPL36A (ILMN_2112811): -6.12E-01 | log ratio RPP40 (ILMN_1810423): -1.07E+00 | log ratio RPRD2 (ILMN_3238889): -7.98E-01 | log ratio RPS6KA4 (ILMN_1756204): -7.98E-01 | log ratio RRBP1 (ILMN_2360784): 6.39E-01 | log ratio RRS1 (ILMN_1767658): -7.92E-01 | log ratio RTN2 (probe ILMN_1749115): 8.60E-01 | log ratio RTN3 (probe ILMN_2363065): 7.08E-01 | log ratio S100A4 (ILMN_1688780): 6.50E-01 | log ratio SALL2 (ILMN_1740842): 6.64E-01 | log ratio SBK1 (probe ILMN_1728298): 8.80E-01 | log ratio SCARNA11 (probe ILMN_3236010): 6.95E-01 | log ratio SCARNA13 (probe ILMN_3235325): 7.18E-01 | log ratio SCARNA14 (probe ILMN_3247636): 7.31E-01 | log ratio SCARNA23 (ILMN_3243966): 6.49E-01 | log ratio SCD5 (ILMN_2237428): 6.35E-01 | log ratio SDCBP (probe ILMN_2363586): 8.86E-01 | log ratio SDCBP (probe ILMN_2363591): 8.22E-01 | log ratio SDHA (ILMN_1744210): 6.20E-01 | log ratio SDHAP2 (probe ILMN_3248781): 7.07E-01 | log ratio SEMA4D (probe ILMN_1687533): 7.86E-01 | log ratio SEMA4F (probe ILMN_1805007): 7.51E-01 | log ratio SENP6 (ILMN_2054233): -8.91E-01 | log ratio SEPHS1 (ILMN_1673369): -1.31E+00 | log ratio SEPHS1 (ILMN_2176768): -1.36E+00 | log ratio SEPHS2 (ILMN_1687824): 6.78E-01 | log ratio SERPINB9 (probe ILMN_1742052): 7.55E-01 | log ratio SERPINI1 (probe ILMN_1814333): 7.79E-01 | log ratio SESN1 (ILMN_1800626): 5.92E-01 | log ratio SETMAR (ILMN_1682404): -7.84E-01 | log ratio SFRS7 (ILMN_1778836): -6.07E-01 | log ratio SFXN4 (ILMN_2363361): -9.20E-01 | log ratio SGK (probe ILMN_1702487): 8.82E-01 | log ratio SGSH (ILMN_2133675): 5.92E-01 | log ratio SH3GLB2 (probe ILMN_2158336): 6.85E-01 | log ratio SLC5A6 (ILMN_1741054): -9.72E-01 | log ratio SLC7A1 (ILMN_1683859): -6.20E-01 | log ratio SLC23A2 (probe ILMN_1746578): 7.82E-01 | log ratio SLC25A4 (probe ILMN_1681670): 8.53E-01 | log ratio SLC25A4 (probe ILMN_2211780): 7.98E-01 | log ratio SLC25A13 (ILMN_1668012): -8.15E-01 | log ratio SLC25A23 (probe ILMN_1679949): 7.04E-01 | log ratio SLC35F2 (ILMN_2075189): -9.03E-01 | log ratio SLC38A1 (ILMN_1769911): -9.30E-01 | log ratio SLC38A5 (ILMN_1695058): -1.13E+00 | log ratio SLC39A3 (ILMN_2234970): 6.58E-01 | log ratio SLC39A10 (ILMN_1656129): -5.93E-01 | log ratio SLC43A3 (ILMN_1658407): -9.67E-01 | log ratio SLC43A3 (ILMN_2330307): -8.92E-01 | log ratio SLC44A2 (probe ILMN_1771987): 7.92E-01 | log ratio SLC45A3 (probe ILMN_1726114): 7.11E-01 | log ratio SLFN11 (ILMN_2162860): 6.41E-01 | log ratio SLFN11 (probe ILMN_1752520): 7.62E-01 | log ratio SLTM (ILMN_1742224): -9.17E-01 | log ratio SLTM (ILMN_2395204): -8.02E-01 | log ratio SMG5 (ILMN_2126239): -9.35E-01 | log ratio SNAP23 (probe ILMN_1687519): 8.74E-01 | log ratio SNHG3-RCC1 (ILMN_1707493): -9.37E-01 | log ratio SNORA76 (ILMN_3237562): -5.92E-01 | log ratio SNORA80 (ILMN_3238554): 6.42E-01 | log ratio SNORD31 (probe ILMN_2072391): 7.85E-01 | log ratio SNORD65 (ILMN_3246353): -8.36E-01 | log ratio SNUPN (ILMN_1733932): -7.98E-01 | log ratio SNUPN (ILMN_2364535): -8.42E-01 | log ratio SNX29 (ILMN_1659761): 6.78E-01 | log ratio SORT1 (probe ILMN_1707077): 8.42E-01 | log ratio SPAG1 (ILMN_2367681): 5.96E-01 | log ratio SPAG7 (ILMN_1684446): -8.14E-01 | log ratio SPAG9 (ILMN_1799104): 6.26E-01 | log ratio SPAG9 (probe ILMN_2263718): 7.33E-01 | log ratio SPI1 (ILMN_2392043): -6.03E-01 | log ratio SPINT2 (probe ILMN_1800739): 8.11E-01 | log ratio SPRY1 (ILMN_2329914): 6.03E-01 | log ratio SREBF1 (probe ILMN_1663035): 7.22E-01 | log ratio SRGN (probe ILMN_1760347): 7.62E-01 | log ratio SRGN (probe ILMN_2169152): 7.60E-01 | log ratio SRP72 (ILMN_1683888): -5.90E-01 | log ratio SSPN (ILMN_1775486): -1.34E+00 | log ratio STAG2 (ILMN_1782609): -9.17E-01 | log ratio STARD10 (probe ILMN_1717052): 8.01E-01 | log ratio STK17B (probe ILMN_1798543): 7.91E-01 | log ratio STMN3 (probe ILMN_3244117): 9.01E-01 | log ratio STX3 (probe ILMN_1659544): 8.71E-01 | log ratio SUMO3 (ILMN_1725642): -9.81E-01 | log ratio SUSD3 (probe ILMN_1785570): 8.58E-01 | log ratio SYNGR1 (ILMN_1810875): 6.25E-01 | log ratio TACC1 (probe ILMN_1770084): 7.64E-01 | log ratio TACO1 (ILMN_1685112): -6.19E-01 | log ratio TADA1L (ILMN_1776487): -6.14E-01 | log ratio TANK (probe ILMN_1715069): 8.21E-01 | log ratio TBC1D7 (probe ILMN_1661622): 7.33E-01 | log ratio TBC1D16 (probe ILMN_1758457): 7.24E-01
